PMC7376718, “Flavonoids isolated from the South African weed Chromolaena odorata (Asteraceae) have pharmacological activity against uropathogens” (BMC Complementary Medicine and Therapies, 2020)
Values after ≈ are worked out from the molar mass of the structure shown. Like-named read-outs stand apart in the source and are kept apart here.

What was measured:
S. aureus = system: S. aureus; design: method as in earlier work; details: ref [70] Teffo et al.; cited from earlier work
Caco2 cells = test: in vitro; details: Caco2
Experimental: (§1) Different concentrations of the compounds ranging from 0.003 to 0.2 mg/mL were tested for cytotoxicity against three cell lines; Vero monkey kidney, C3A and Caco2. Vero cells were grown and maintained in MEM, supplemented with 0.1% gentamicin and 5% foetal calf serum, while Caco2 and C3A cells were grown and maintained in DMEM supplemented with 10% foetal calf serum, 1% non-essential amino acids and 1% penicillin-streptomycin. All cells were incubated in a 5% CO2 incubator at 37 °C. Doxorubicin chloride was used as positive control while 10% DMSO used in dissolving the test samples was used as the negative control. The 3-(4,5-dimethylthiazol)-2,5-diphenyl tetrazolium bromide (MTT) assay described by Mosmann with modification by McGaw et al. was used to determine the cytotoxicity of the test samples. The lethal concentration (LC50) value was calculated as the concentration of tested sample resulting in a 50% reduction of absorbance compared to untreated cells. Selectivity index (SI) values were calculated against the MIC using the formula: […]

[1] = system: Cryptococcus neoformans from a cheetah; test: MIC, serial microdilution with INT; type: cell-based; details: C. neoformans, read-out: Minimum inhibitory concentration
From the text: (§2) The cultures used were Escherichia coli (American Type Culture Collection, ATCC 25922) labelled as 1, E. coli isolates (B1989/17 and B1962/17) labelled as 2 and 3 from equine urine, collected from the Department of Veterinary Tropical Diseases, Faculty of Veterinary Science, University of Pretoria, South Africa, Klebsiella pneumoniae isolate from commercial chicken eggs, Enterococcus faecalis (ATCC 29212), Pseudomonas aeruginosa (ATCC 27853), Staphylococcus aureus (ATCC 29213), Candida albicans from a Gouldian finch, Aspergillus fumigatus from a chicken and Cryptococcus neoformans from a cheetah. These microbial strains were maintained on MHA or SDA for bacteria and fungi respectively, while the isolates were maintained on blood agar.
(§3) Ten mg/mL of each fraction and 1 mg/mL of isolated compounds were prepared in 10% DMSO and tested against S. aureus, E. coli, K. pneumoniae, E. faecalis, P. aeruginosa, C. albicans, C. neoformans and A. fumigatus. Cultures were prepared by inoculating each microbial strain from prepared agar plates into sterilized MHB for bacterial and SDB for fungi in sterile McCartney bottles respectively. The inoculums were placed in an orbital shaker incubator. Bacterial strains were incubated at 37 °C for 18 h. Each bacterial culture was diluted in fresh MHB and the absorbance was measured at a wavelength of 560 nm using a microplate reader (Epoch Biotek). The readings were compared to a McFarland standard No. 1 correlating to approximately 3 × 10^8 cfu/mL). For fungi strains, cultures were incubated at 30 °C for 24 h (C. albicans), 72 h (C. neoformans) and 120 h (A. fumigatus) respectively. The resultant cells and spores were washed with sterile normal saline and absorbance was measured at a wavelength of 560 nm and turbidity was adjusted to a McFarland standard 1.This was further diluted in a 1:10 ratio in SDB to a turbidity of 5 × 10^5 cfu/mL. These diluted cultures (bacterial and fungi) were used for the screening following the serial microdilution method of Eloff.

E. coli = system: E. coli; design: method as in earlier work; details: ref [70] Teffo et al.; cited from earlier work
in vitro [2] = test: in vitro
Experimental: as §1

[3] = system: C. neoformans and A. fumigatus; test: Mean MIC over the fungal isolates; type: cell-based; details: all time points of Table 3
From the text: as §2, §3

in vitro [4] = test: in vitro; remark: listed apart in the source
Experimental: as §1

Structure (SMILES)	MIC / antibacterial activity (S. aureus)	Selectivity index (LC50/MIC) (Caco2 cells; A. fumigatus 48 h)	Selectivity index (LC50/MIC) (Caco2 cells; E. coli (1))	Selectivity index (LC50/MIC) (Caco2 cells; E. coli (2))	Selectivity index (LC50/MIC) (Caco2 cells; E. coli (3))	Selectivity index (LC50/MIC) (Caco2 cells; K. pneumoniae)	Selectivity index (LC50/MIC) (Caco2 cells; S. aureus)	MIC ([1]; 48 h, 48 h) [µg/mL]	MIC ([1]; 72 h, 72 h) [µg/mL]	MIC / antibacterial activity (E. coli)	CC50 (in vitro [2]) [µg/mL]	MIC [3] [µg/mL]	Mean MIC [3] [µg/mL]	CC50 (in vitro [4]) [µg/mL]
COc1ccc(-c2oc3cc(OC)cc(O)c3c(=O)c2OC)cc1 [Compound 3, 5-hydroxy-3,7,4′-trimethoxyflavone]	no activity was recorded	5.129	2.52	0.636	0.636	1.272	9.938	> 250	> 250	no activity was recorded	–	–	–	–
COc1ccc(C2CC(=O)c3c(OC)cc(OC)cc3O2)cc1 (racemic) [Compound 2, (±)-4′,5,7-trimethoxy flavanone]	–	–	–	–	–	–	–	16 (≈ 50.9 µM)	125 (≈ 398 µM)	–	> 200	70 ± 60 (≈ 223 µM)	70	200 (≈ 636 µM)
